Data published in paper PMC4505445 (The Journal of Biological Chemistry, 2015).
Structures can show the parent of a compound that is named as a salt.

Target: T1, human prion protein 91–231 (Homo sapiens, UniProt P04156)
T1 construct: gene PRNP
Assay: biochemical
Assay type: binding

Row | SMILES | Kd
1 | COc1cc(-c2ccc(N=Nc3ccc4c(S(=O)(=O)O)cc(S(=O)(=O)O)c(N)c4c3O)c(OC)c2)ccc1N=Nc1ccc2c(S(=O)(=O)O)cc(S(=O)(=O)O)c(N)c2c1O [Chicago Sky Blue 6B] | 1.43 ± 0.24 µM

Target: T2, human prion protein 23–231 (PrP, unlabeled wild type) (Homo sapiens, UniProt P04156)
T2 construct: gene PRNP
Assay: biochemical
Assay type: binding

Row | SMILES | IC50
2 | CC[N+](C)(CC)CCC[n+]1c(-c2ccccc2)c2cc(N)ccc2c2ccc(N)cc21 [Propidium iodide] | > 100 µM
3 | COc1cc(C(=O)NS(=O)(=O)c2ccccc2C)ccc1Cc1cn(C)c2ccc(NC(=O)OC3CCCC3)cc12 [Zafirlukast] | 85.7 µM
4 | O=C1c2c(O)cccc2Cc2cccc(O)c21 [Anthralin] | > 100 µM
5 | NC(CO)C(=O)NNCc1ccc(O)c(O)c1O (stereo not shown) [Benserazide HCl] | > 100 µM
6 | CC(C)/N=c1\cc2n(-c3ccc(Cl)cc3)c3ccccc3nc-2cc1Nc1ccc(Cl)cc1 [Clofazimine] | > 100 µM
7 | C[C@@H]1[C@H](O)[C@@H](C)/C=C/C=C/C=C/C=C/C=C/C=C/C=C/[C@H](O[C@@H]2O[C@H](C)[C@@H](O)[C@H](N)[C@@H]2O)C[C@@H]2O[C@](O)(C[C@@H](O)C[C@@H](O)[C@H](O)CC[C@@H](O)C[C@@H](O)CC(=O)O[C@H]1C)C[C@H](O)[C@H]2C(=O)O [Amphotericin B] | 88.8 µM
